US20240358692A1, “TREATMENT OF SCLERODERMA” (Aisa Pharma, Inc., priority 2023, published 2024)

Tested on: participants with SSc-RP
Assay: Average severity of weekly RP attacks (VAS 0-10)
Assay type: in vivo, human
Conditions: for Average Severity (0-10) of weekly RP attacks, Median / Average Severity (0-10) of weekly RP attacks, Mean / Average severity of weekly RP attacks, Percent Change from Baseline, Mean / Average severity of weekly RP attacks, Change from Baseline, Mean / Average severity of weekly RP attacks, Percent Change from Baseline, Median / Average severity of weekly RP attacks, Change from Baseline, Median: all attacks
From the text: The absolute change in average severity of weekly RP attacks (VAS 0-10 cm scale) from baseline to the end of each Dosing Period was and will be a secondary outcome variable. The sponsor-developed participant-informed diary will be used to record data. Average severity of weekly RP attacks is defined as the total severity scores of RP attacks divided by total number of RP attacks within the last 7 days of each dosing period. Total severity scores of RP attacks during the last 7 days of screening period divided by the total number of RP attacks will be used as baseline for the analysis of all periods. The variable will be calculated similar to frequency data as before.

[1] = Pooled Cilnidipine 10 mg and Cilnidipine 10 mg + Tadalafil 5 mg, Excluding Outliers, 1st Baseline RCS subgroup, ITT Part A, last 7 days of dosing period
[2] = Pooled Cilnidipine 10 mg and Cilnidipine 10 mg + Tadalafil 5 mg, Excluding Outliers, 2nd Baseline RCS subgroup, ITT Part A, last 7 days of dosing period
[3] = Pooled Cilnidipine 10 mg and Cilnidipine 10 mg + Tadalafil 5 mg, ITT Part A, last 7 days of dosing period
[4] = Pooled Cilnidipine 10 mg and Cilnidipine 10 mg + Tadalafil 5 mg, Excluding Outliers, by Baseline RCS: second subgroup of Table C-8, ITT Part A
[5] = Pooled Cilnidipine 10 mg and Cilnidipine 10 mg + Tadalafil 5 mg, by Baseline RCS: second subgroup of Table C-7, ITT Part A
[6] = Pooled Cilnidipine 20 mg and Cilnidipine 20 mg + Tadalafil 5 mg, 1st Baseline RCS subgroup, ITT Part A, last 7 days of dosing period
[7] = Pooled Cilnidipine 20 mg and Cilnidipine 20 mg + Tadalafil 5 mg, 2nd Baseline RCS subgroup, ITT Part A, last 7 days of dosing period
[8] = Pooled Cilnidipine 20 mg and Cilnidipine 20 mg + Tadalafil 5 mg, Excluding Outliers, 1st Baseline RCS subgroup, ITT Part A, last 7 days of dosing period
[9] = Pooled Cilnidipine 20 mg and Cilnidipine 20 mg + Tadalafil 5 mg, Excluding Outliers, 2nd Baseline RCS subgroup, ITT Part A, last 7 days of dosing period
[10] = Pooled Cilnidipine 20 mg and Cilnidipine 20 mg + Tadalafil 5 mg, ITT Part A, last 7 days of dosing period
[11] = Pooled Cilnidipine 20 mg and Cilnidipine 20 mg + Tadalafil 5 mg, Excluding Outliers, by Baseline RCS: first subgroup of Table C-8, ITT Part A
[12] = Pooled Cilnidipine 20 mg and Cilnidipine 20 mg + Tadalafil 5 mg, by Baseline RCS: first subgroup of Table C-7, ITT Part A
[13] = Pooled Cilnidipine, 1st Baseline RCS subgroup, ITT Part A, last 7 days of dosing period
[14] = Pooled Cilnidipine, Excluding Outliers, 1st Baseline RCS subgroup, ITT Part A, last 7 days of dosing period
[15] = Pooled Cilnidipine, ITT Part A, last 7 days of dosing period
[16] = Pooled Cilnidipine, Excluding Outliers, ITT Part A
[17] = Pooled Cilnidipine, Excluding Outliers, by Baseline RCS: first subgroup of Table C-8, ITT Part A
[18] = Pooled Cilnidipine, by Baseline RCS: first subgroup of Table C-7, ITT Part A
[19] = Pooled Cilnidipine, excluding outliers, ITT Part A
[20] = Pooled Cilnidipine, excluding outliers, severity 0-10, ITT Part A
[21] = Pooled Cilnidipine, severity 0-10, ITT Part A

COCCOC(=O)C1=C(C)NC(C)=C(C(=O)OC/C=C/c2ccccc2)C1c1cccc([N+](=O)[O-])c1 (centres unmarked) [Cilnidipine]
Average Severity of Weekly Symptomatic RP Attacks, Change from Baseline, Median [1]: −1.22 | Average Severity of Weekly Symptomatic RP Attacks, Mean [1]: 3.34 | Average Severity of Weekly Symptomatic RP Attacks, Median [1]: 3.34 | Average Severity of Weekly Symptomatic RP Attacks, Percent Change from Baseline, Mean [1]: −20.18% | Average Severity of Weekly Symptomatic RP Attacks, Percent Change from Baseline, Median [1]: −20.18% | Average Severity of Weekly Symptomatic RP Attacks, Change from Baseline, Mean [2]: −1.13 | Average Severity of Weekly Symptomatic RP Attacks, Change from Baseline, Median [2]: −1.13 | Average Severity of Weekly Symptomatic RP Attacks, Mean [2]: 5.23 | Average Severity of Weekly Symptomatic RP Attacks, Median [2]: 5.23 | Average Severity of Weekly Symptomatic RP Attacks, Percent Change from Baseline, Mean [2]: −17.81% | Average Severity of Weekly Symptomatic RP Attacks, Percent Change from Baseline, Median [2]: −17.81% | Average Severity of Weekly RP Attacks (All Attacks), Change from Baseline, Mean [3]: −1.34 | Average Severity of Weekly RP Attacks (All Attacks), Change from Baseline, Median [3]: −1.32 | Average Severity of Weekly RP Attacks (All Attacks), Mean [3]: 3.62 | Average Severity of Weekly RP Attacks (All Attacks), Median [3]: 3.05 | Average Severity of Weekly RP Attacks (All Attacks), Percent Change from Baseline, Mean [3]: −23.02% | Average Severity of Weekly RP Attacks (All Attacks), Percent Change from Baseline, Median [3]: −21.20% | Average Severity (0-10) of weekly RP attacks, Median (Pooled Cilnidipine 10 mg and Cilnidipine 10 mg + Tadalafil 5 mg, Excluding Outliers, ITT Part A): 3.05 | Average Severity (0-10) of weekly RP attacks, Mean [4]: 4.90 | Average Severity (0-10) of weekly RP attacks, Median [4]: 4.90 | Average severity of weekly RP attacks, Percent Change from Baseline, Mean [4]: −21.20% | Average severity of weekly RP attacks, Change from Baseline, Mean (Pooled Cilnidipine 10 mg and Cilnidipine 10 mg + Tadalafil 5 mg, by Baseline RCS: first subgroup of Table C-7, ITT Part A): −1.35 | Average Severity (0-10) of weekly RP attacks, Mean [5]: 4.90 | Average Severity (0-10) of weekly RP attacks, Median [5]: 4.90 | Average severity of weekly RP attacks, Percent Change from Baseline, Mean [5]: −21.20% | Average severity of weekly RP attacks, Percent Change from Baseline, Median [5]: −21.20% | Average Severity of Weekly Symptomatic RP Attacks, Change from Baseline, Mean [6]: −1.06 | Average Severity of Weekly Symptomatic RP Attacks, Change from Baseline, Median [6]: −0.33 | Average Severity of Weekly Symptomatic RP Attacks, Mean [6]: 2.85 | Average Severity of Weekly Symptomatic RP Attacks, Median [6]: 2.40 | Average Severity of Weekly Symptomatic RP Attacks, Percent Change from Baseline, Mean [6]: −24.28% | Average Severity of Weekly Symptomatic RP Attacks, Percent Change from Baseline, Median [6]: −12.02% | Average Severity of Weekly Symptomatic RP Attacks, Change from Baseline, Mean [7]: −1.79 | Average Severity of Weekly Symptomatic RP Attacks, Change from Baseline, Median [7]: −1.79 | Average Severity of Weekly Symptomatic RP Attacks, Mean [7]: 5.06 | Average Severity of Weekly Symptomatic RP Attacks, Median [7]: 5.06 | Average Severity of Weekly Symptomatic RP Attacks, Percent Change from Baseline, Mean [7]: −26.14% | Average Severity of Weekly Symptomatic RP Attacks, Percent Change from Baseline, Median [7]: −26.14% | Average Severity of Weekly Symptomatic RP Attacks, Change from Baseline, Mean [8]: −1.06 | Average Severity of Weekly Symptomatic RP Attacks, Change from Baseline, Median [8]: −0.33 | Average Severity of Weekly Symptomatic RP Attacks, Mean [8]: 2.85 | Average Severity of Weekly Symptomatic RP Attacks, Median [8]: 2.40 | Average Severity of Weekly Symptomatic RP Attacks, Percent Change from Baseline, Mean [8]: −24.28% | Average Severity of Weekly Symptomatic RP Attacks, Percent Change from Baseline, Median [8]: −12.02% | Average Severity of Weekly Symptomatic RP Attacks, Change from Baseline, Mean [9]: −1.79 | Average Severity of Weekly Symptomatic RP Attacks, Change from Baseline, Median [9]: −1.79 | Average Severity of Weekly Symptomatic RP Attacks, Mean [9]: 5.06 | Average Severity of Weekly Symptomatic RP Attacks, Median [9]: 5.06 | Average Severity of Weekly Symptomatic RP Attacks, Percent Change from Baseline, Mean [9]: −26.14% | Average Severity of Weekly Symptomatic RP Attacks, Percent Change from Baseline, Median [9]: −26.14% | Average Severity of Weekly RP Attacks (All Attacks), Change from Baseline, Mean [10]: −1.02 | Average Severity of Weekly RP Attacks (All Attacks), Change from Baseline, Median [10]: −0.96 | Average Severity of Weekly RP Attacks (All Attacks), Mean [10]: 3.35 | Average Severity of Weekly RP Attacks (All Attacks), Median [10]: 3.06 | Average Severity of Weekly RP Attacks (All Attacks), Percent Change from Baseline, Mean [10]: −21.83% | Average Severity of Weekly RP Attacks (All Attacks), Percent Change from Baseline, Median [10]: −16.40% | Average severity of weekly RP attacks, Change from Baseline, Median (Pooled Cilnidipine 20 mg and Cilnidipine 20 mg + Tadalafil 5 mg, Excluding Outliers, ITT Part A): −0.96 | Average Severity (0-10) of weekly RP attacks, Median [11]: 2.40 | Average severity of weekly RP attacks, Change from Baseline, Mean [11]: −0.84 | Average severity of weekly RP attacks, Change from Baseline, Median [11]: −0.39 | Average Severity (0-10) of weekly RP attacks, Median [12]: 2.40 | Average severity of weekly RP attacks, Change from Baseline, Mean [12]: −0.84 | Average severity of weekly RP attacks, Change from Baseline, Median [12]: −0.39 | Severity (change) (Pooled Cilnidipine (n = 7)): −16% | Average Severity of Weekly Symptomatic RP Attacks, Change from Baseline, Mean [13]: −0.87 | Average Severity of Weekly Symptomatic RP Attacks, Change from Baseline, Median [13]: −0.33 | Average Severity of Weekly Symptomatic RP Attacks, Mean [13]: 2.79 | Average Severity of Weekly Symptomatic RP Attacks, Median [13]: 2.40 | Average Severity of Weekly Symptomatic RP Attacks, Percent Change from Baseline, Mean [13]: −19.22% | Average Severity of Weekly Symptomatic RP Attacks, Percent Change from Baseline, Median [13]: −12.02% | Average Severity of Weekly Symptomatic RP Attacks, Change from Baseline, Mean [14]: −0.87 | Average Severity of Weekly Symptomatic RP Attacks, Change from Baseline, Median [14]: −0.33 | Average Severity of Weekly Symptomatic RP Attacks, Mean [14]: 2.79 | Average Severity of Weekly Symptomatic RP Attacks, Median [14]: 2.40 | Average Severity of Weekly Symptomatic RP Attacks, Percent Change from Baseline, Mean [14]: −19.22% | Average Severity of Weekly Symptomatic RP Attacks, Percent Change from Baseline, Median [14]: −12.02% | Average Severity of Weekly Symptomatic RP Attacks, Percent Change from Baseline, Mean (Pooled Cilnidipine, ITT Part A): −19.22% | Average Severity of Weekly Symptomatic RP Attacks, Percent Change from Baseline, Median (Pooled Cilnidipine, ITT Part A): −12.02% | Average Severity of Weekly RP Attacks (All Attacks), Change from Baseline, Mean [15]: −0.71 | Average Severity of Weekly RP Attacks (All Attacks), Change from Baseline, Median [15]: −0.20 | Average Severity of Weekly RP Attacks (All Attacks), Mean [15]: 2.55 | Average Severity of Weekly RP Attacks (All Attacks), Median [15]: 2.40 | Average Severity of Weekly RP Attacks (All Attacks), Percent Change from Baseline, Mean [15]: −17.99% | Average Severity of Weekly RP Attacks (All Attacks), Percent Change from Baseline, Median [15]: −7.69% | Average Severity (0-10) of weekly RP attacks, Median [16]: 2.40 | Average severity of weekly RP attacks, Change from Baseline, Mean [16]: −0.71 | Average severity of weekly RP attacks, Change from Baseline, Median [16]: −0.20 | Average Severity (0-10) of weekly RP attacks, Mean [17]: 2.55 | Average Severity (0-10) of weekly RP attacks, Median [17]: 2.40 | Average severity of weekly RP attacks, Change from Baseline, Mean [17]: −0.71 | Average severity of weekly RP attacks, Change from Baseline, Median [17]: −0.20 | Average severity of weekly RP attacks, Percent Change from Baseline, Mean [17]: −17.99% | Average severity of weekly RP attacks, Percent Change from Baseline, Median [17]: −7.69% | Average Severity (0-10) of weekly RP attacks, Mean [18]: 2.55 | Average Severity (0-10) of weekly RP attacks, Median [18]: 2.40 | Average severity of weekly RP attacks, Change from Baseline, Mean [18]: −0.71 | Average severity of weekly RP attacks, Change from Baseline, Median [18]: −0.20 | Average severity of weekly RP attacks, Percent Change from Baseline, Mean [18]: −17.99% | Average severity of weekly RP attacks, Percent Change from Baseline, Median [18]: −7.69% | Average Severity of Weekly Symptomatic RP Attacks, Percent Change from Baseline, Mean [19]: −19.22% | Average Severity of Weekly Symptomatic RP Attacks, Percent Change from Baseline, Median [19]: −12.02% | Average Severity of Weekly Symptomatic RP Attacks, Change from Baseline, Mean [20]: −0.87 | Average Severity of Weekly Symptomatic RP Attacks, Change from Baseline, Median [20]: −0.33 | Average Severity of Weekly Symptomatic RP Attacks, Mean [20]: 2.79 | Average Severity of Weekly Symptomatic RP Attacks, Median [20]: 2.40 | Average Severity of Weekly Symptomatic RP Attacks, Change from Baseline, Mean [21]: −0.87 | Average Severity of Weekly Symptomatic RP Attacks, Change from Baseline, Median [21]: −0.33 | Average Severity of Weekly Symptomatic RP Attacks, Mean [21]: 2.79 | Average Severity of Weekly Symptomatic RP Attacks, Median [21]: 2.40 | severity of attacks, dose response (cilnidipine monotherapy 10 mg vs 20 mg (n=3)): 20 mg reducing severity more than 10 mg
